In PMC4039064, “An inhibitor-driven study for enhancing the selectivity of indirubin derivatives towards leishmanial Glycogen Synthase Kinase-3 over leishmanial cdc2-related protein kinase 3” (Parasites & Vectors, 2014):

What was measured:
[1] = biological target: T1, LCRK3 (cdc2-related protein kinase 3) (Leishmania mexicana, UniProt O15851); assay: luminescent kinase assay (Promega); assay type: biochemical; conditions: read-out: L CRK3
T1 construct: gene crk3; recombinant, purified from transgenic L. mexicana promastigotes (homologous expression, gift of K. Grant)
T1 sequence (O15851 1-311): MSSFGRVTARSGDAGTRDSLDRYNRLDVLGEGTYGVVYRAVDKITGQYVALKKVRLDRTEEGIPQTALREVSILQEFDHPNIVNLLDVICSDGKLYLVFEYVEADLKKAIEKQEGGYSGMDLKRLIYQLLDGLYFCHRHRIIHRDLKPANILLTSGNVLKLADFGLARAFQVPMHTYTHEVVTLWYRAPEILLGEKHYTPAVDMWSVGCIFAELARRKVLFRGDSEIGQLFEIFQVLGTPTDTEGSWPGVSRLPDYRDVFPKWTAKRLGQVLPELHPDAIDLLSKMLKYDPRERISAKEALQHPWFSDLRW

[2] = biological target: T2, LGSK-3 (leishmanial Glycogen Synthase Kinase-3 short) (Leishmania donovani, UniProt A6N857); assay: luminescent kinase assay (Promega); assay type: biochemical; conditions: read-out: L GSK-3
T2 construct: recombinant, purified from L. donovani over-expressing transfectants (homologous expression); A6N857 is printed for the L. donovani homology model and alignment
T2 sequence (A6N857 1-355): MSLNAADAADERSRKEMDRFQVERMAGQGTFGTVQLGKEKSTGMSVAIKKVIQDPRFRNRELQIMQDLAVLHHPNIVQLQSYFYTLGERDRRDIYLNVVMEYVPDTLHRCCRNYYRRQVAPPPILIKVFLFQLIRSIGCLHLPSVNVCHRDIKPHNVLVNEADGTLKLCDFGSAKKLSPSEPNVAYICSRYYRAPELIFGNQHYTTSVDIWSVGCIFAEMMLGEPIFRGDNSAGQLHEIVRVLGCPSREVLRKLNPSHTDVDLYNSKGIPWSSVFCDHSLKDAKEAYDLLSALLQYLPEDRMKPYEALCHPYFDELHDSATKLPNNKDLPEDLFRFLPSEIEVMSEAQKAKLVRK

Compound: Cc1cc2c(cc1Br)NC(=O)C2=C1Nc2ccccc2C1=NO [5-Me-6-BIO, 5-methyl-6-bromoindirubin-3′-oxime]
- IC50 [1]: 650 ± 90 nM
- IC50 [2]: 90 ± 20 nM
